Reference: EP0363224A1, “Treatment of periodontal disease” (BLOCK DRUG COMPANY INC., priority 1988, dated 1990)

How the values were obtained:
alveolar bone resorption = settings: long-term therapy, compared to matched undosed control group; cited from earlier work
[1] = tested on: naturally occurring periodontal disease; settings: systemic doses, 12-month treatment, compared to untreated or periodontal surgery control groups; cited from earlier work
cyclooxygenase = assay: inhibition of cyclooxygenase conversion of radiolabeled arachidonic acid into prostaglandins in homogenate of inflamed gingival tissue; type: biochemical, humans; settings: comparison of IC₅₀ values
Procedure: Inflamed gingival tissues from the mouths of humans suffering from periodontal disease were used fresh or stored in liquid nitrogen until used. Tis­sues were pooled, homogenized in 0.2 M TRIS buffer, and centrifuged. Radiolabeled arachidonic acid (¹⁴C) was added to the centrifrugate into which various in­hibiting agents under study had been incorporated into separate aliquots, at various molar levels (log range of 10⁻³ to 10⁻⁹M). The reaction between arachidonic acid and test materials was carried out for 2 hours at 37°C.
Prostaglandins in the biological reaction mixtures were extracted and quantitatively determined by high performance liquid chromatography.

Row | Compound | rate of alveolar bone resorption (alveolar bone resorption) | other results
1 | COc1ccc2c(c1)c(CC(=O)O)c(C)n2C(=O)c1ccc(Cl)cc1 [Indomethacin] | lower rate of alveolar bone resorption | 
2 | CC(C(=O)O)c1ccc(-c2ccccc2)c(F)c1 (stereo not shown) [Flurbiprofen] |  | alveolar bone loss [1]: significant reduction in alveolar bone loss
3 | CC(=O)Oc1ccccc1C(=O)O [aspirin] | lower rate of alveolar bone resorption | 
4 | CC(C(=O)O)c1cccc(C(=O)c2ccccc2)c1 (stereo not shown) [2-methyl (3-benzoylphenyl) propanoic acid] |  | effectiveness compared with other test materials (cyclooxygenase): slightly more effective than alpha tocopherol
